#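 A five-concentration, 48-hour dose response in 96-well plates underlies each endpoint, interpolated linearly between surrounding concentrations. GI50 = concentration required for 50% inhibition of growth. TGI: concentration producing complete growth inhibition.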
# Columns and labels:
# Assay in all cases: growth of human tumour cells (NCI), 48 h
# 786-0 renal = test system: 786-0 renal
# A498 renal = test system: A498 renal
# A549 NSCLC = test system: A549 NSCLC
# ACHN renal = test system: ACHN renal
# BT-549 breast = test system: BT-549 breast
# CAKI-1 renal = test system: CAKI-1 renal
# CCRF-CEM leukemia = test system: CCRF-CEM leukemia
# COLO 205 colon = test system: COLO 205 colon
# DU-145 prostate = test system: DU-145 prostate
# HCC-2998 colon = test system: HCC-2998 colon
# HCT-116 colon = test system: HCT-116 colon
# HCT-15 colon = test system: HCT-15 colon
# HL-60(TB) leukemia = test system: HL-60(TB) leukemia
# HOP-62 NSCLC = test system: HOP-62 NSCLC
# HOP-92 NSCLC = test system: HOP-92 NSCLC
# HS 578T breast = test system: HS 578T breast
# HT29 colon = test system: HT29 colon
# IGROV1 ovarian = test system: IGROV1 ovarian
# K-562 leukemia = test system: K-562 leukemia
# KM12 colon = test system: KM12 colon
# LOX IMVI melanoma = test system: LOX IMVI melanoma
# M14 melanoma = test system: M14 melanoma
# MALME-3M melanoma = test system: MALME-3M melanoma
# MCF7 breast = test system: MCF7 breast
# MDA-MB-231 breast = test system: MDA-MB-231 breast
# MDA-MB-435 = test system: MDA-MB-435
# MOLT-4 leukemia = test system: MOLT-4 leukemia
# NCI-H226 lung = test system: NCI-H226 lung
# NCI-H23 lung = test system: NCI-H23 lung
# NCI-H460 lung = test system: NCI-H460 lung
# NCI-H522 lung = test system: NCI-H522 lung
# NCI/ADR-RES ovarian = test system: NCI/ADR-RES ovarian
# OVCAR-3 ovarian = test system: OVCAR-3 ovarian
# OVCAR-4 ovarian = test system: OVCAR-4 ovarian
# OVCAR-5 ovarian = test system: OVCAR-5 ovarian
# OVCAR-8 ovarian = test system: OVCAR-8 ovarian
# PC-3 prostate = test system: PC-3 prostate
# RPMI-8226 leukemia = test system: RPMI-8226 leukemia
# SF-268 CNS = test system: SF-268 CNS
# SF-295 CNS = test system: SF-295 CNS
# SF-539 CNS = test system: SF-539 CNS
# SK-MEL-2 melanoma = test system: SK-MEL-2 melanoma
# SK-MEL-28 melanoma = test system: SK-MEL-28 melanoma
# SK-MEL-5 melanoma = test system: SK-MEL-5 melanoma
# SK-OV-3 ovarian = test system: SK-OV-3 ovarian
# SN12C renal = test system: SN12C renal
# SNB-19 CNS = test system: SNB-19 CNS
# SNB-75 CNS = test system: SNB-75 CNS
# SR leukemia = test system: SR leukemia
# SW-620 colon = test system: SW-620 colon
# T-47D breast = test system: T-47D breast
# TK-10 renal = test system: TK-10 renal
# U251 CNS = test system: U251 CNS
# UACC-257 melanoma = test system: UACC-257 melanoma
# UACC-62 melanoma = test system: UACC-62 melanoma
# UO-31 renal = test system: UO-31 renal
compound,measurement,setting,value
O=C(Nc1cccc2[nH]c(C(F)(F)F)nc12)c1cc(Cl)ccc1Cl,GI50,786-0 renal,3.01 µM
same,TGI,786-0 renal,12.1 µM
same,GI50,A498 renal,1.63 µM
same,TGI,A498 renal,6.19 µM
same,GI50,A549 NSCLC,3.45 µM
same,TGI,A549 NSCLC,> 100 µM
same,GI50,ACHN renal,2.88 µM
same,TGI,ACHN renal,16.6 µM
same,GI50,BT-549 breast,2.33 µM
same,TGI,BT-549 breast,8.14 µM
same,GI50,CAKI-1 renal,2.7 µM
same,TGI,CAKI-1 renal,31.3 µM
same,GI50,CCRF-CEM leukemia,3.16 µM
same,TGI,CCRF-CEM leukemia,46.8 µM
same,GI50,COLO 205 colon,1.84 µM
same,TGI,COLO 205 colon,3.62 µM
same,GI50,DU-145 prostate,4.94 µM
same,TGI,DU-145 prostate,> 100 µM
same,GI50,HCC-2998 colon,3.87 µM
same,TGI,HCC-2998 colon,15.8 µM
same,GI50,HCT-116 colon,3.06 µM
same,TGI,HCT-116 colon,12.9 µM
same,GI50,HCT-15 colon,3.38 µM
same,TGI,HCT-15 colon,19.4 µM
same,GI50,HL-60(TB) leukemia,2.87 µM
same,TGI,HL-60(TB) leukemia,7.53 µM
same,GI50,HOP-62 NSCLC,2.34 µM
same,TGI,HOP-62 NSCLC,7.37 µM
same,GI50,HOP-92 NSCLC,2.09 µM
same,TGI,HOP-92 NSCLC,6.72 µM
same,GI50,HS 578T breast,2.91 µM
same,TGI,HS 578T breast,12.9 µM
same,GI50,HT29 colon,3.62 µM
same,TGI,HT29 colon,14.7 µM
same,GI50,IGROV1 ovarian,6.04 µM
same,TGI,IGROV1 ovarian,> 100 µM
same,GI50,K-562 leukemia,3.71 µM
same,TGI,K-562 leukemia,> 100 µM
same,GI50,KM12 colon,3.37 µM
same,TGI,KM12 colon,11.2 µM
same,GI50,LOX IMVI melanoma,2.97 µM
same,TGI,LOX IMVI melanoma,10 µM
same,GI50,M14 melanoma,3.32 µM
same,TGI,M14 melanoma,16.3 µM
same,GI50,MALME-3M melanoma,2.85 µM
same,TGI,MALME-3M melanoma,8.61 µM
same,GI50,MCF7 breast,2.81 µM
same,TGI,MCF7 breast,49.7 µM
same,GI50,MDA-MB-231 breast,2.43 µM
same,TGI,MDA-MB-231 breast,6.71 µM
same,GI50,MDA-MB-435,2.96 µM
same,TGI,MDA-MB-435,12.4 µM
same,GI50,MOLT-4 leukemia,3 µM
same,TGI,MOLT-4 leukemia,8.65 µM
same,GI50,NCI-H226 lung,3.39 µM
same,TGI,NCI-H226 lung,25.5 µM
same,GI50,NCI-H23 lung,2.81 µM
same,TGI,NCI-H23 lung,7.78 µM
same,GI50,NCI-H460 lung,3.09 µM
same,TGI,NCI-H460 lung,> 100 µM
same,GI50,NCI-H522 lung,2.27 µM
same,TGI,NCI-H522 lung,6.2 µM
same,GI50,NCI/ADR-RES ovarian,2.87 µM
same,TGI,NCI/ADR-RES ovarian,8.89 µM
same,GI50,OVCAR-3 ovarian,3.4 µM
same,TGI,OVCAR-3 ovarian,10.3 µM
same,GI50,OVCAR-4 ovarian,2.59 µM
same,TGI,OVCAR-4 ovarian,> 100 µM
same,GI50,OVCAR-5 ovarian,4.03 µM
same,TGI,OVCAR-5 ovarian,> 100 µM
same,GI50,OVCAR-8 ovarian,3.68 µM
same,TGI,OVCAR-8 ovarian,31.6 µM
same,GI50,PC-3 prostate,3.1 µM
same,TGI,PC-3 prostate,92.9 µM
same,GI50,RPMI-8226 leukemia,2.3 µM
same,TGI,RPMI-8226 leukemia,6.3 µM
same,GI50,SF-268 CNS,4.69 µM
same,TGI,SF-268 CNS,> 100 µM
same,GI50,SF-295 CNS,2.23 µM
same,TGI,SF-295 CNS,6.55 µM
same,GI50,SF-539 CNS,3.07 µM
same,TGI,SF-539 CNS,15.3 µM
same,GI50,SK-MEL-2 melanoma,2.79 µM
same,TGI,SK-MEL-2 melanoma,6.66 µM
same,GI50,SK-MEL-28 melanoma,4.95 µM
same,TGI,SK-MEL-28 melanoma,35.4 µM
same,GI50,SK-MEL-5 melanoma,1.77 µM
same,TGI,SK-MEL-5 melanoma,3.45 µM
same,GI50,SK-OV-3 ovarian,2.21 µM
same,TGI,SK-OV-3 ovarian,6.06 µM
same,GI50,SN12C renal,2.78 µM
same,TGI,SN12C renal,9.59 µM
same,GI50,SNB-19 CNS,3.72 µM
same,TGI,SNB-19 CNS,> 100 µM
same,GI50,SNB-75 CNS,2.06 µM
same,TGI,SNB-75 CNS,8.06 µM
same,GI50,SR leukemia,3.04 µM
same,TGI,SR leukemia,8.96 µM
same,GI50,SW-620 colon,3.6 µM
same,TGI,SW-620 colon,14.8 µM
same,GI50,T-47D breast,1.84 µM
same,TGI,T-47D breast,6.43 µM
same,GI50,TK-10 renal,4.17 µM
same,TGI,TK-10 renal,36.2 µM
same,GI50,U251 CNS,3.47 µM
same,TGI,U251 CNS,14.1 µM
same,GI50,UACC-257 melanoma,3.34 µM
same,TGI,UACC-257 melanoma,12.3 µM
same,GI50,UACC-62 melanoma,3.47 µM
same,TGI,UACC-62 melanoma,16.1 µM
same,GI50,UO-31 renal,2.78 µM
same,TGI,UO-31 renal,11.3 µM

# Reference: PubChem BioAssay (NCI)
